Source: patent US8648112B2, “Therapeutic uses of urolithins” (The Regents of the University of California, priority 2006, dated 2014)

Experiments:
[1] = tested on: 22Rv1 prostate cancer cell line; assay: Antiproliferative cell assay (CellTiter-Glo), 22Rv1; type: cell-based, human; settings: Homo sapiens, 22Rv1, 48 h, 48 h exposure, read-out: IC50 against prostate cancer cell line 22 Rv1
Protocol: (§1) Cell Culture Materials. The 22Rv1, DU145, LNCaP and PC3 prostate cancer cell lines were obtained from American Type Culture Collection (ATCC, Rockville, Md.). The LNCaP-AR and Hi-Myc cell lines were a kind donation by Dr. C. Sawyers (David Geffen School of Medicine, UCLA, Los Angeles, Calif.). DU145, 22Rv1, LNCaP, LNCaP-AR, and PC3 cells were grown in RPMI 1640; Hi-Myc cells were grown in Isecove's Modified Dulbecco's Medium. All media contained 10% fetal bovine serum (FBS) in the presence of 100 U/mL penicillin and 0.1 g/L streptomycin. RWPE-1 prostate cells were grown in Defined Keratinocyte Serum Free Medium (DKSFM) containing epidermal growth factor (EGF), insulin and fibroblast growth factor (FGF). Cells were incubated at 37° C. with 95% air and 5% CO2. All cells were maintained below passage 20 and used in experiments during the linear phase of growth.
(§2) Proliferation was measured utilizing the CellTiter-Glo® Luminescent Cell Viability Assay (Technical Bulletin #288, Promega Corp., Madison, Wis.). When added to cells, the assay reagent produces luminescence in the presence of ATP from viable cells. Cells were plated in 96-well plates at a density of 10,000 cells/well and incubated for 24 hours. Test samples were solubilized in DMSO by sonication, filter sterilized and diluted with media to the desired treatment concentration. Cells were treated with 100 μLcontrol media, vehicle control (DMSO<0.2% of total) or test samples and incubated for 48 h drug exposure duration at 6.25, 12.5, 25, 50 and 100 μg/mL concentrations. At the end of 48 h, plates were equilibrated at room temperature for 30 min; 100 μL of the assay reagent was added to each well and cell-lysis was induced on an orbital shaker for 2 min. Plates were incubated at room temperature for 10 min to stabilize the luminescence signal and results were read on an Orion Microplate Luminometer (Bertholds Detection Systems, Pforzheim, Germany). All plates had control wells containing medium without cells to obtain a value for background luminescence. Data are expressed as percentage of untreated cells (i.e. treatment value-blank/vehicle value-blank), mean±SE for three replications.

LNCaP-AR cells = assay: Assessment of apoptosis (Cell Death Detection ELISA), LNCaP-AR; type: cell-based, human; settings: 48 h, p=0.01
Protocol: (§3) Assessment of apoptosis. Apoptosis was assessed utilizing the Cell Death Detection ELISAPLUS Assay (Boehringer Mannheim, Indianapolis, Ind.). This assay is a photometric enzyme-linked immunoassay that quantitatively measures the internucleosomal degradation of DNA, which occurs during apoptosis. Specifically, the assay detects histone associated mono- and oligonucleosomes, which are indicators of apoptosis. Cells (22RV1, PC-3, LNCaP, LNCaP-AR), were plated in 60 mm dishes at a density of 100,000 cells/dish and allowed to attach for 24 hours. Cells were treated with vehicle control (100% DMSO; 0.3% final concentration), or urolithin B (0-50 μg/mL or 0-236 μM) for 48 hours. Following treatments, non-adherent cells were collected and pelleted at 200×g for ten minutes. The supernatant was discarded; the cell pellet was washed with cold CMF-PBS and re-centrifuged. […] Both live and dead cells were then counted via trypan blue exclusion (Pierce, Rockford, Ill.) and equal numbers of cells were added to the microtiter plate for all treatment groups and apoptosis assay was performed according to the manufacturer's instructions. Data are expressed as absorbance at 405 nm of each sample over vehicle controls as follows=treatment value-blank/vehicle value-blank.

LNCaP cells = assay: Assessment of apoptosis (Cell Death Detection ELISA), LNCaP; type: cell-based, human; settings: 48 h, p=0.01
Protocol: as §3

[2] = tested on: LNCaP-AR prostate cancer cell line; assay: Antiproliferative cell assay (CellTiter-Glo), LNCaP-AR; type: cell-based, human; settings: Homo sapiens, 48 h exposure, read-out: IC50 against prostate cancer cell line LNCap-AR
Protocol: as §1, §2

[3] = tested on: Hi-Myc prostate cancer cell line; assay: Antiproliferative cell assay (CellTiter-Glo), Hi-Myc; type: cell-based; settings: Hi-Myc (mouse), 48 h exposure, read-out: IC50 against prostate cancer cell line HiMyc
Protocol: as §1, §2

[4] = tested on: human pancreatic cancer cell line ASPC-1; assay: Antiproliferative activity against pancreatic cancer cells (CellTiter-Glo), ASPC-1; type: cell-based; settings: 100 μg/mL, 48 hrs
Protocol: (§4) EA and EA-metabolites (gallic and gallagic acids, urolithin B and methylated-urolithin A) were evaluated for antiproliferative activity against the human pancreatic cancer cell lines ASPC-1 and BXPC-3. The cells were grown to a concentration of 10,000 cells per well; and were then resuspended in medium containing the vehicle control or the indicated compound: Ellagic acid, urolithin A, methyl urolithin A, or urolithin B, at a concentration of 100 μg/mL. The cells were incubated for 48 hrs, and the viability assayed byCellTiter-Glo® Luminescent Cell Viability Assay (Technical Bulletin #288, Promega Corp., Madison, Wis.).

22Rv1 cells = assay: Assessment of apoptosis (Cell Death Detection ELISA), 22Rv1; type: cell-based, human; settings: 48 h, p=0.05
Protocol: as §3

PC3 cells = assay: Assessment of apoptosis (Cell Death Detection ELISA), PC3; type: cell-based, human; settings: 48 h, p=0.05
Protocol: as §3

[5] = tested on: PC3 prostate cancer cell line; assay: Antiproliferative cell assay (CellTiter-Glo), PC3; type: cell-based, human; settings: Homo sapiens, 48 h exposure, read-out: IC50 against prostate cancer cell line PC3
Protocol: as §1, §2

[6] = tested on: human colon cancer cell line HCT-116; assay: Antiproliferative activity against colon cancer cells (CellTiter-Glo); type: cell-based; settings: 100 μg/mL, 48 hrs
Protocol: as §4, with “colon” for “pancreatic”, “line HCT-116.” for “lines ASPC-1 and BXPC-3.”, “well in a 96 well format;” for “well;”, “containing” for “containing the”, “by the CellTiter-Glo®” for “byCellTiter-Glo®”

[7] = tested on: DU145 prostate cancer cell line; assay: Antiproliferative cell assay (CellTiter-Glo), DU145; type: cell-based, human; settings: Homo sapiens, DU-145, 48 h exposure, read-out: IC50 against prostate cancer cell line DU145
Protocol: as §1, §2

[8] = tested on: human pancreatic cancer cell line BXPC-3; assay: Antiproliferative activity against pancreatic cancer cells (CellTiter-Glo), BXPC-3; type: cell-based; settings: 100 μg/mL, 48 hrs
Protocol: as §4

[9] = tested on: LNCaP prostate cancer cell line; assay: Antiproliferative cell assay (CellTiter-Glo), LNCaP; type: cell-based, human; settings: Homo sapiens, 48 h exposure, read-out: IC50 against prostate cancer cell line LNCaP
Protocol: as §1, §2

O=c1oc2cc(O)ccc2c2ccccc12 [Urolithin B, 3-hydroxy-6H-dibenzo[b,d]pyran-6-one]
IC50 [1]: 118 µM | concentration showing statistically significant pro-apoptotic effect (LNCaP-AR cells): 59 µM | concentration showing statistically significant pro-apoptotic effect (LNCaP cells): 118 µM | IC50 [2]: 28.5 µM | IC50 [3]: 59.9 µM | anti-proliferative activity, rank order [4]: urolithin A is the most active, then ellagic acid, urolithin B and methyl urolithin A | concentration showing statistically significant pro-apoptotic effect (22Rv1 cells): 59 µM | concentration showing statistically significant pro-apoptotic effect (PC3 cells): 29.5 µM | IC50 [5]: 127 µM | anti-proliferative activity, rank order [6]: urolithin A is the most active, then ellagic acid, urolithin B and methyl urolithin A | IC50 [7]: 59.4 µM | anti-proliferative activity, rank order [8]: urolithin A is the most active, then ellagic acid, urolithin B and methyl urolithin A | IC50 [9]: 90.5 µM
